Laboratory results published in PMC8989888, “Development of optimized drug-like small molecule inhibitors of the SARS-CoV-2 3CL protease for treatment of COVID-19” (Nature Communications, 2022).
Like-named read-outs stand apart in the source and are kept apart here.

Molecular target: SARS-CoV-2 3CL protease (Severe acute respiratory syndrome coronavirus 2, UniProt P0DTD1)
Assay type: biochemical
Set-up: Avg: unit not given here
Settings: for Inhibition at 10 µM: 10 µM compound; for Inhibition at 100 µM: 100 µM compound; for IC50 / LogIC50: Figure S1 and S2
[1] = Conc 10 µM, mean response (inhibition) of dose-response curve
[2] = Conc 15 µM, mean response (inhibition) of dose-response curve
[3] = Conc 20 µM, mean response (inhibition) of dose-response curve
[4] = Conc 50 µM, mean response (inhibition) of dose-response curve
[5] = Conc 100 µM, mean response (inhibition) of dose-response curve
[6] = Conc 200 µM, mean response (inhibition) of dose-response curve
[7] = dose-response curve of fragment hit
[8] = log of IC50 (µM), dose-response curve fit
[9] = Conc 10 µM, average response of dose-response curve
[10] = Conc 15 µM, average response of dose-response curve
[11] = Conc 20 µM, average response of dose-response curve
[12] = Conc 50 µM, average response of dose-response curve
[13] = Conc 100 µM, average response of dose-response curve
[14] = Conc 200 µM, average response of dose-response curve
[15] = dose-response retest of fragment hits

SMILES | Inhibition at 10 µM | Inhibition at 100 µM | Avg [1] | Avg [2] | Avg [3] | Avg [4] | Avg [5] | Avg [6] | IC50 [7] | LogIC50 (log10 of IC50 in µM) | Avg (Conc 10 µM) | Avg (Conc 15 µM) | Avg (Conc 20 µM) | Avg (Conc 50 µM) | Avg (Conc 100 µM) | Avg (Conc 200 µM) | IC50 (dose-response curve fit) | LogIC50 [8] | also measured
Cc1cc(C(=O)CCl)c(C)n1-c1nccs1 [Z56979277] | 64% | 100% | 63.6 | 80.9 | 90.9 | 95.6 | 101.9 | 108.5 |  |  |  |  |  |  |  |  |  |  | 
Cc1cc(C(=O)CCl)c(C)n1-c1ncn[nH]1 [Z57014347] | 35% | 100% | 35.1 | 51.1 | 60.8 | 75.5 | 101.2 | 107.2 | 15.4 µM | 1.188 |  |  |  |  |  |  |  |  | 
CN(c1ccc(C(=O)CCl)cc1)S(C)(=O)=O [Z57982062] | 47% | 94% | 47.1 | 48.1 | 62 | 79.8 | 93.6 | 99.3 | 13.5 µM | 1.131 |  |  |  |  |  |  |  |  | 
CCN(c1ccc(C(=O)CCl)cc1)S(C)(=O)=O [Z85932823] | 25% | 84% | 25.1 | 25.8 | 34.6 | 58.2 | 84.1 | 87.1 | 39.7 µM | 1.598 |  |  |  |  |  |  |  |  | 
CC1C(=O)Nc2ccc(C(=O)CCl)cc21 (stereo not drawn) [Z94598687] | 3% | 85% | 3 | 12.3 | 39.4 | 61.2 | 84.9 | 105.3 | 33.9 µM | 1.53 |  |  |  |  |  |  |  |  | 
O=C(CCl)NC(=O)OCc1ccccc1 [Z108566700] | 22% | 100% |  |  |  |  |  |  |  |  | 22.2 | 41.7 | 51.1 | 86.4 | 100.3 | 108.1 | 19 µM | 1.279 | 
Cc1cc(C(=O)CCl)c(C)n1-c1ccccn1 [Z126674012] | 36% | 91% |  |  |  |  |  |  |  |  | 35.8 | 45.3 | 61.2 | 80.4 | 91.2 | 99.9 | 15.8 µM | 1.197 | 
O=C(CCl)N1CCN(Cc2cccs2)CC1 [Z166605372] | 3% | 70% |  |  |  |  |  |  |  |  |  |  |  |  |  |  |  |  | Avg [9]: 3.4; Avg [10]: 11.2; Avg [11]: 27.4; Avg [12]: 53.6; Avg [13]: 69.5; Avg [14]: 93; IC50 [15]: 47.5 µM; LogIC50 (log of IC50 in µM): 1.677
Cc1ccccc1CN1CCN(C(=O)CCl)CC1 [Z208155076] | 18% | 85% |  |  |  |  |  |  |  |  |  |  |  |  |  |  |  |  | Avg [9]: 18.2; Avg [10]: 5.8; Avg [11]: 36.6; Avg [12]: 64.8; Avg [13]: 84.6; Avg [14]: 98.1; IC50 [15]: 35.8 µM; LogIC50 (log of IC50 in µM): 1.554
O=C(CCl)c1ccc(N2CCCC2=O)cc1 [Z221603842] | 47% | 87% |  |  |  |  |  |  |  |  |  |  |  |  |  |  |  |  | Avg [9]: 46.5; Avg [10]: 48.2; Avg [11]: 62.2; Avg [12]: 77.1; Avg [13]: 86.9; Avg [14]: 83.1; IC50 [15]: 14 µM; LogIC50 (log of IC50 in µM): 1.147
NS(=O)(=O)c1ccc(S)nc1 [Z235344787] | 6% | 100% |  |  |  |  |  |  |  |  |  |  |  |  |  |  |  |  | Avg [9]: 5.7; Avg [10]: 20.7; Avg [11]: 38.6; Avg [12]: 106.4; Avg [13]: 110.1; Avg [14]: 111.3; IC50 [15]: 22.3 µM; LogIC50 (log of IC50 in µM): 1.348
O=C(NCCc1ccc(F)cc1)n1ccnc1 [Z235353843] | 30% | 96% |  |  |  |  |  |  |  |  |  |  |  |  |  |  |  |  | Avg [9]: 29.9; Avg [10]: 15.5; Avg [11]: 42.1; Avg [12]: 82.2; Avg [13]: 95.9; Avg [14]: 102.1; IC50 [15]: 27.6 µM; LogIC50 (log of IC50 in µM): 1.441
O=C(c1ccc(S)nc1)N1CCCC1 [Z235362941] | 0% | 100% |  |  |  |  |  |  |  |  |  |  |  |  |  |  |  |  | Avg [9]: 0.4; Avg [10]: 23.9; Avg [11]: 31.4; Avg [12]: 102.7; Avg [13]: 108.6; Avg [14]: 116.6; IC50 [15]: 23.9 µM; LogIC50 (log of IC50 in µM): 1.378
Cc1ccc(CNC(=O)n2ccnc2)cc1 [Z295462498] | 21% | 100% | 21 | 37.9 | 33.6 | 84.1 | 101.3 | 104 | 26.7 µM | 1.426 |  |  |  |  |  |  |  |  | 
N#Cc1ccc(S)nc1 [Z367678594] | 16% | 100% | 16.1 | 29.5 | 30.5 | 107.9 | 110.6 | 113.2 | 25 µM | 1.398 |  |  |  |  |  |  |  |  | 
O=C(CCl)N1CCc2[nH]c3ccccc3c2C1 [Z398556976] | 43% | 100% | 42.8 | 70.8 | 74.6 | 93.9 | 100.2 | 98.1 | 11 µM | 1.042 |  |  |  |  |  |  |  |  | 
CSc1cc(C(=O)CCl)ccc1NC(C)=O [Z449369022] |  | 95% | 12.5 | 32 | 31 | 67.6 | 95.3 | 107.3 | 31 µM | 1.491 |  |  |  |  |  |  |  |  | 
NC(=O)c1csc(C(=O)CCl)c1 [Z802671642] | 16% | 80% | 15.9 | 29.5 | 35.2 | 47.6 | 80.1 | 92.5 | 42.6 µM | 1.6293 |  |  |  |  |  |  |  |  | 
NC(=O)CCc1ccc(C(=O)CCl)cc1 [Z1203664423] | 22% | 88% |  |  |  |  |  |  |  |  | 21.6 | 41.7 | 49.5 | 69.9 | 88.3 | 103.3 | 22 µM | 1.341 | 
O=C(NCC1CCCCC1O)c1cccnc1S (stereo not drawn) [Z1252265470] | 0% | 100% |  |  |  |  |  |  |  |  | -0.7 | 22.4 | 33.5 | 82 | 99.6 | 99.1 | 25.5 µM | 1.406 | 
COC(C)(C)CNC(=O)c1cccnc1S [Z1274680193] | 27% | 80% |  |  |  |  |  |  |  |  | 27.3 | 54.6 | 67.5 | 90.4 | 80.1 | 60.9 | 14.2 µM | 1.153 | 
O=C(NCCC(O)c1ccccc1)c1cccnc1S (stereo not drawn) [Z1275438373] | 13% | 100% |  |  |  |  |  |  |  |  | 12.5 | 9.1 | 42.4 | 99.1 | 101.3 | 95.1 | 20.2 µM | 1.3058 | 
O=C(NCC(CO)c1ccccc1)c1cccnc1S (stereo not drawn) [Z1346056045] | 2% | 96% |  |  |  |  |  |  |  |  | 2.4 | 13.5 | 19.9 | 74.2 | 95.6 | 87.7 | 32.4 µM | 1.51 | 
CCNC(=O)N1CCC(NC(=O)c2cccnc2S)C1 (stereo not drawn) [Z1421663935] | 4% | 100% |  |  |  |  |  |  |  |  | 3.7 | 20 | 18.3 | 97.3 | 103.3 | 100 | 28 µM | 1.447 | 
CCC(=O)N1CCC(NC(=O)c2cccnc2S)C1 (stereo not drawn) [Z1429050837] | 24% | 100% |  |  |  |  |  |  |  |  | 24.1 | 26.1 | 20.9 | 87.9 | 102.1 | 100.5 | 42.3 µM | 1.626 | 
Cc1nc(CCNC(=O)c2cccnc2S)sc1C [Z1432661577] | 10% | 100% |  |  |  |  |  |  |  |  | 10.2 | 5.7 | 26.8 | 103 | 104.1 | 108.4 | 20.8 µM | 1.319 | 
COC1(CNC(=O)c2cccnc2S)CCOCC1 [Z1483040147] | 0% | 90% |  |  |  |  |  |  |  |  | -6.5 | -1.8 | 13.4 | 61.8 | 90 | 90.2 | 39.7 µM | 1.599 | 
